ChEMBL document CHEMBL4507268 (2021)

Tests used:
Conditions in all cases: Compound concentration 1.0 uM
[1] = biological target: Casein kinase I isoform gamma-2 (Homo sapiens) (UniProt P78368)
[2] = biological target: T1, Ephrin type-A receptor 1 (Homo sapiens) (UniProt P21709)
T1 sequence (whole entry): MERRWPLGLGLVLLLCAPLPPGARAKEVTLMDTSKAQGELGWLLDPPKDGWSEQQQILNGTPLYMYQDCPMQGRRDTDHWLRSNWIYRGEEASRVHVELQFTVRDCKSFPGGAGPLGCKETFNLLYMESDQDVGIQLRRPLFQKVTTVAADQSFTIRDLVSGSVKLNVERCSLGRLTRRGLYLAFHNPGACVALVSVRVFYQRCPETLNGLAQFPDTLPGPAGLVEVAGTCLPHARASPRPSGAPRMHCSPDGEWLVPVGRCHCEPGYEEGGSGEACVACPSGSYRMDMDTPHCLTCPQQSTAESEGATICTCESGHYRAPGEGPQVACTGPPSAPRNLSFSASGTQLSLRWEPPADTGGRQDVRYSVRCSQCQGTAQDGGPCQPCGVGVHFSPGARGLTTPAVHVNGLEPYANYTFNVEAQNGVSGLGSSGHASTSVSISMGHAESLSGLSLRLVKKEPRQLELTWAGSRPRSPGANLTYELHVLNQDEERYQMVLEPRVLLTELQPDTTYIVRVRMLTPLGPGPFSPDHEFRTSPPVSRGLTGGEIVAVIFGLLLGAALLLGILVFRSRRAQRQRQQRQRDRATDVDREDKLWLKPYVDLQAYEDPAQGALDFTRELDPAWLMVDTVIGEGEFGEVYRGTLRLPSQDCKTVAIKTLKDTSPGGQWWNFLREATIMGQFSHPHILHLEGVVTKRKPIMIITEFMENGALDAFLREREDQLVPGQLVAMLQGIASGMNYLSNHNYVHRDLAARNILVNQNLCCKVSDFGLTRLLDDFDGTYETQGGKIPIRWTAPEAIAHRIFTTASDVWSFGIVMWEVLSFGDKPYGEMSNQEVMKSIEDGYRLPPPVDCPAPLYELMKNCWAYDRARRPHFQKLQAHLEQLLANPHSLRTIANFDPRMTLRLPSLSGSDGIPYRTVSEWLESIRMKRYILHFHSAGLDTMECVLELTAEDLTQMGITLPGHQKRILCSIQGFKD

[3] = biological target: Serine/threonine-protein kinase pim-1 (Homo sapiens) (UniProt P11309)
[4] = biological target: T2, cGMP-dependent protein kinase 1 (Homo sapiens) (UniProt Q13976)
T2 sequence (whole entry): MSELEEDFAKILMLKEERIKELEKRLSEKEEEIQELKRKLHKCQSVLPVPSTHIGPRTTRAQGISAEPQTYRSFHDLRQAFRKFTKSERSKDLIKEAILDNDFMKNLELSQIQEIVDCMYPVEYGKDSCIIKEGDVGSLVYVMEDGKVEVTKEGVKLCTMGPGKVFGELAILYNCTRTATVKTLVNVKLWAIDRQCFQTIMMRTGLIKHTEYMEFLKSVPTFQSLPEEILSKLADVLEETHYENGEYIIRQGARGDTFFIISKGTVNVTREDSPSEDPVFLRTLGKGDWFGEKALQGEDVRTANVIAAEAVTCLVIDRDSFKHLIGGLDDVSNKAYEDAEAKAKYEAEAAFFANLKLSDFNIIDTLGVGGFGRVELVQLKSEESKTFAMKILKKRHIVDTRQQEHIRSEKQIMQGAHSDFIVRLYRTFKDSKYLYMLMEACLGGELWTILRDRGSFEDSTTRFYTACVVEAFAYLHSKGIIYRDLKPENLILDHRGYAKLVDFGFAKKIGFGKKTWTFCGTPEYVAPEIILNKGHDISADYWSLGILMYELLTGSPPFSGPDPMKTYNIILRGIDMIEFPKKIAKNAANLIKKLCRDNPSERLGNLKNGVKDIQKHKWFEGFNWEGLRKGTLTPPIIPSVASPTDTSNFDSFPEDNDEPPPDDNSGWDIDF

[5] = biological target: Serine/threonine-protein kinase N1 (Homo sapiens) (UniProt Q16512)
[6] = biological target: Rho-associated protein kinase 2 (Homo sapiens) (UniProt O75116)

Measured: % residual kinase activity

Sequence of Serine/threonine-protein kinase N1 (Homo sapiens) (Q16512 2-942 limits assumed): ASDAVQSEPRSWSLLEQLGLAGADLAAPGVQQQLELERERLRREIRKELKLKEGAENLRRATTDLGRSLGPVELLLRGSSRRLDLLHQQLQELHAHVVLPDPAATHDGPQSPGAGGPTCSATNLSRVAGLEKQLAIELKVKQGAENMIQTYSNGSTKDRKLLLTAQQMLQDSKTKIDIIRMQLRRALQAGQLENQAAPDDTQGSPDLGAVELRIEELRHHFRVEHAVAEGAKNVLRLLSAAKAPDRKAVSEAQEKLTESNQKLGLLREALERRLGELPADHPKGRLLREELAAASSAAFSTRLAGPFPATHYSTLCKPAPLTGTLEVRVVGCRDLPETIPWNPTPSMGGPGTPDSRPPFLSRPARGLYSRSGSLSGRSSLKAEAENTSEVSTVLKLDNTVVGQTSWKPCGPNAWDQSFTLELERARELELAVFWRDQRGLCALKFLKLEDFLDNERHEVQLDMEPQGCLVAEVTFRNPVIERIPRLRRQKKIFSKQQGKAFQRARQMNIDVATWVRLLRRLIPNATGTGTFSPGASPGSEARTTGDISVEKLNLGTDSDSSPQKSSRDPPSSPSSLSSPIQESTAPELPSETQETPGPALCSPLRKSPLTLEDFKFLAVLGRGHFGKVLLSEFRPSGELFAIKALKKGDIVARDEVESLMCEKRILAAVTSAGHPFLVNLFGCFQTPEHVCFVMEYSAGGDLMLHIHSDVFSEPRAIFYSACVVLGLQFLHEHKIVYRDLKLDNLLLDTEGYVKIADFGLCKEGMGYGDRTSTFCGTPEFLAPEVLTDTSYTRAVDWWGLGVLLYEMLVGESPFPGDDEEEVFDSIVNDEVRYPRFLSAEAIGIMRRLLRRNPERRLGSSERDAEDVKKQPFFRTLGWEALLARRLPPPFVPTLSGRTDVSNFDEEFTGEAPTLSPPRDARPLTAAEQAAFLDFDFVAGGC
Sequence of Rho-associated protein kinase 2 (Homo sapiens) (O75116 whole entry, looked up): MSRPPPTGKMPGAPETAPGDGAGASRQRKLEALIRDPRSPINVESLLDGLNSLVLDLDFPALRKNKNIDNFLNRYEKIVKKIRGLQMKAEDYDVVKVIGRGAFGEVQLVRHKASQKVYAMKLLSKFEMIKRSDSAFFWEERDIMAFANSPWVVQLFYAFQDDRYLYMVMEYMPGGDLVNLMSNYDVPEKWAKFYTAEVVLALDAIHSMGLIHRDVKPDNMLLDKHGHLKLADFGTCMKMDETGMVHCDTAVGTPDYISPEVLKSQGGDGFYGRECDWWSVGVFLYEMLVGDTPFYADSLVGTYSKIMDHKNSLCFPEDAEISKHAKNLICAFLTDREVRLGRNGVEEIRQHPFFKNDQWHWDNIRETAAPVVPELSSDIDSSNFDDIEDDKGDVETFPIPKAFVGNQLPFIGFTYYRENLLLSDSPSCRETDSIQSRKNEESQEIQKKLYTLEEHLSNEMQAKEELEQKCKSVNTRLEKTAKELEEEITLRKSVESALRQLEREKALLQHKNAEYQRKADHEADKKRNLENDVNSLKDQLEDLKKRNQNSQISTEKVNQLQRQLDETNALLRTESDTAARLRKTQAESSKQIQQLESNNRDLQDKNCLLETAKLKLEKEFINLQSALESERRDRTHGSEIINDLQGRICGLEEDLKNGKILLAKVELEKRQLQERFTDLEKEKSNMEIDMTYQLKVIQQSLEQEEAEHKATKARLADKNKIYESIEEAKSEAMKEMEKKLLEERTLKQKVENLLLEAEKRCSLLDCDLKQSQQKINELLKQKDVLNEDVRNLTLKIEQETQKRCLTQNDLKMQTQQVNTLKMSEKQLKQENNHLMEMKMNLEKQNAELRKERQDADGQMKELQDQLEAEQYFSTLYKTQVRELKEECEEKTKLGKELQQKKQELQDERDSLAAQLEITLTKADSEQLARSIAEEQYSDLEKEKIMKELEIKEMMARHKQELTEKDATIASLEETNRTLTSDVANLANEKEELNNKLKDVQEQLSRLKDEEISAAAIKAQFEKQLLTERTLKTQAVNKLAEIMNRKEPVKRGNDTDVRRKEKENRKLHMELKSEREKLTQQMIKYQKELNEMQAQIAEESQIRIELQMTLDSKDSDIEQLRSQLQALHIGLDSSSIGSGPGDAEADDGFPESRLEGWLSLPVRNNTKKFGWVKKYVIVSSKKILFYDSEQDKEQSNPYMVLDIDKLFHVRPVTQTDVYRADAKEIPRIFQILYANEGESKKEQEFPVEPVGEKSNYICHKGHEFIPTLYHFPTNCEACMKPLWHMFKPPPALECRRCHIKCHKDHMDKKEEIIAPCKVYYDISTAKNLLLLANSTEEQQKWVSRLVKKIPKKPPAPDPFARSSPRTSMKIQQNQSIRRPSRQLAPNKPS
Sequence of Serine/threonine-protein kinase pim-1 (Homo sapiens) (P11309 whole entry, looked up): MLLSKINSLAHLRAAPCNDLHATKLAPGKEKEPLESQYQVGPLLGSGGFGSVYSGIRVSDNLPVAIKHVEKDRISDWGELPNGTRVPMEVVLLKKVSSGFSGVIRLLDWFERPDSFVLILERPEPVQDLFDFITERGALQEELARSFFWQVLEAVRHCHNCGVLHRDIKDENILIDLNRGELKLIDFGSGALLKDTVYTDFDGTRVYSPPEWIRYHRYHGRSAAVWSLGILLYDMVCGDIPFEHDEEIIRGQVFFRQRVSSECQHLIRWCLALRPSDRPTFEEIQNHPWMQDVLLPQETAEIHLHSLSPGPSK
Sequence of Casein kinase I isoform gamma-2 (Homo sapiens) (P78368 whole entry, looked up, canonical isoform): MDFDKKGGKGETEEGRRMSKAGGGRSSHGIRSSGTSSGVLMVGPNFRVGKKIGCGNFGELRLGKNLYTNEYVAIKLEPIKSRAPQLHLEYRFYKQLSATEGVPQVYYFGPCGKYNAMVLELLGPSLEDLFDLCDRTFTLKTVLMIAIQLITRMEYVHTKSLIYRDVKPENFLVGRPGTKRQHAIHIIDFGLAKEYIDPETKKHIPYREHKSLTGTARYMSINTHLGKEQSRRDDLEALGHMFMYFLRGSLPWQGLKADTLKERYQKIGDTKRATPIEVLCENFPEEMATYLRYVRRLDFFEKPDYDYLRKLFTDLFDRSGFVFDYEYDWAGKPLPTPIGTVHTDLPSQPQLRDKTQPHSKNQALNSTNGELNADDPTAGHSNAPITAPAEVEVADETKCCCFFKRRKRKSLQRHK

CN1CCN(c2cnc3c(C4CCN(C(=O)c5ccc(OC(F)(F)F)cc5N)CC4)ncnc3c2)CC1 [BAY-885]
inactive: [1] 91% | [2] 106% | [3] 111% | [4] 122% | [5] 114% | [6] 91%
